Results from patent publication US20230024119A1, “COMBINED USE OF SODIUM TRANS-[TETRACHLORIDOBIS(1H-INDAZOLE)RUTHENATE(III)] AND ETOMOXIR FOR TREATING CANCERS” (Bold Therapeutics, Inc., priority 2019, published 2023).

Columns and labels:
KP1339-resistant cells = conditions: upon KP1339 treatment
Description: (§1) (also referred to herein as KP1339 or BOLD-100 or IT139). […] Lipid storage compartments (lipid droplets) were visualized fluorescently with Bodipy 493/503. Utilizing specific pharmacological inhibitors, the role of altered lipid metabolism components in KP1339 resistance was dissected. Mitochondrial oxygen consumption rate (OCR) and extracellular acidification rate (ECAR) were assessed by Seahorse XF analysis. Lipidomics and consecutive proteomics analysis were used to further characterize the resistance phenotype.

sensitive HCT116 cells = test system: sensitive HCT116 cells
Description: as §1

[1] = test system: HCT116 and Capan1 cell models with acquired KP1339 resistance; experiment: Sensitivity of KP1339-resistant cell models to lipid-modulating agents; assay type: cell-based
Description: as §1

Compound	mitochondrial oxygen consumption rate (OCR) (KP1339-resistant cells)	extracellular acidification rate (ECAR) (sensitive HCT116 cells; Seahorse Mito Stress Test, sensitive HCT116 cells)	mitochondrial oxygen consumption rate (OCR) (sensitive HCT116 cells; upon KP1339 treatment, parental cells)	amount of Compound A present in the lyophilized product (cooling the solution during the formulation process)	degradation in water (in water)	sensitivity towards lipid-modulating agents [1]
[Cl][Ru]([Cl])([Cl])[Cl].[Na+].c1ccc2[nH]ncc2c1.c1ccc2[nH]ncc2c1 [KP1339, Sodium trans-[tetrachloridobis(1H-indazole)ruthenate(III)]]	stayed unchanged in resistant cells	massively reduced ECAR	reduced in parental	greatly reduce the amount of Compound A	can degrade in water to Compound A	–
CCCCCCCCCCC[C@@H](C[C@@H]1OC(=O)[C@H]1CCCCCC)OC(=O)[C@H](CC(C)C)NC=O [orlistat]	–	–	–	–	–	hypersensitive
CCC/C=C/C/C=C/C=C/C=N/NN=O [triacsin C]	–	–	–	–	–	hypersensitive
